# From patent publication US20150297637A1, “ACTIVATED CARBON COMPRISING AN ADSORBED IODIDE SALT IN A METHOD FOR TREATING CHRONIC BRONCHITIS” (PHARMALUNDENSIS AB, priority 2012, published 2015)
# “Also recorded” adds a separate entry of the source.
# Tested on: cough and sputum production in a patient with chronic bronchitis
# Assay: Use of KI-impregnated charcoal for treating a patient with chronic bronchitis
# Format: in vivo, human
# Conditions: one patient; capsule with 10 mg KI per day for one month
# Description: A person has for several years experienced increasing problems with cough and mucous production for long periods. They were diagnosed as suffering from chronic bronchitis. They were prescribed standard treatment including corticosteroids, anti-cholinergics, beta2-stimulants and mucolytics such as acetylcysteine.
# Since the chronic bronchitis caused considerable inconvenience, they examined alternative ways to reduce the symptoms.
# To clarify if the improvement of the chronic bronchitis by KI-impregnated activated charcoal was caused by iodide, […] then took a capsule with 10 mg (which amount is considerably higher than the amount of iodide in the KI-impregnated activated charcoal, 300 mg×1.62%=4.9 mg) KI per day for one month.
# Finally, they once again took 300 mg activated charcoal impregnated with 1.6% KI in a 00 vegetable capsule for one month.
smiles,measurement,value
"[I-].[K+] [KI, Potassium iodide]",Cough and sputum production,did not reduce the cough or sputum production at all; also recorded: no improvement of cough or sputum production
